# Measured values taken from US20230313318A1, “MICR[…] METHOD OF USE THEREOF” (priority 2022, published 2023).
# Tested on: D. immitis GA III (susceptible isolate)
# Design: species or system Dirofilaria immitis
# Conditions: in vivo
substance,measurement,setting,value
Milbemycin oxime [MBO],Number of GA III Worms,,0
same,Percentage of GA III Worms,po,0%
